Patent publication US20240390352A1, “PHARMACEUTICAL COMPOSITION FOR PREVENTING OR TREATING CANCER COMPRISING CARNITINE ACYLCARNITINE CARRIER INHIBITOR AND ANTITUMOR AGENT” (NEW CANCER CURE - BIO CO.,LTD., priority 2021, published 2024)

Columns and labels:
Format in all cases: cell-based
[1] = system: colon cancer cell lines HCT-116 cells and COLO-205 cells; assay: Synergistic effect of omeprazole and anticancer drug, colon cancer cell lines; conditions: anticancer drug combined with omeprazole (KN510) versus each treatment alone
[2] = system: UACC257 cells; assay: SRB assay cancer cell growth rate, UACC257; conditions: relative to control (100%), 48 hours, KN510 200 μM, irinotecan 2.5 μM, 5-FU 5 μM, gemcitabine 2.5 μM, paclitaxel 10 nM, cisplatin 1 μM, alone or KN510 + anticancer drug
[3] = system: melanoma cell lines UACC62 cells and UACC257 cells; assay: Synergistic effect of omeprazole and anticancer drug, melanoma cell lines; conditions: anticancer drug combined with omeprazole (KN510) versus each treatment alone
[4] = system: OVCAR-8 cells; assay: SRB assay cancer cell growth rate, OVCAR-8; conditions: relative to control (100%), 48 hours, KN510 200 μM, irinotecan 2.5 μM, 5-FU 5 μM, gemcitabine 2.5 μM, paclitaxel 10 nM, cisplatin 1 μM, alone or KN510 + anticancer drug
[5] = system: K562 cells; assay: SRB assay cancer cell growth rate, K562; conditions: relative to control (100%), 48 hours, KN510 200 μM, irinotecan 2.5 μM, 5-FU 5 μM, gemcitabine 2.5 μM, paclitaxel 10 nM, cisplatin 1 μM, alone or KN510 + anticancer drug
[6] = system: renal cell carcinoma cell lines CAKI-1 and ACHN cells; assay: Synergistic effect of omeprazole and anticancer drug, renal cancer cell lines; conditions: anticancer drug combined with omeprazole (KN510) versus each treatment alone
[7] = system: A549 cells; assay: SRB assay cancer cell growth rate, A549; conditions: relative to control (100%), 48 hours, KN510 200 μM, irinotecan 2.5 μM, 5-FU 5 μM, gemcitabine 2.5 μM, paclitaxel 10 nM, cisplatin 1 μM, alone or KN510 + anticancer drug
[8] = system: SR cells; assay: SRB assay cancer cell growth rate, SR; conditions: relative to control (100%), 48 hours, KN510 200 μM, irinotecan 2.5 μM, 5-FU 5 μM, gemcitabine 2.5 μM, paclitaxel 10 nM, cisplatin 1 μM, alone or KN510 + anticancer drug
[9] = system: liver cancer cell lines SK-HEP-1 cells and Huh-7 cells; assay: Synergistic effect of omeprazole and anticancer drug, liver cancer cell lines; conditions: anticancer drug combined with omeprazole (KN510) versus each treatment alone
[10] = system: prostate cancer cells, PC-3 cells and DU-145 cells; assay: Synergistic effect of omeprazole and anticancer drug, prostate cancer cells; conditions: anticancer drug combined with omeprazole (KN510) versus each treatment alone
[11] = system: glioblastoma (GBM) cell lines, U-87 MG cells and T87G cells; assay: Synergistic effect of omeprazole and anticancer drug, glioblastoma cell lines; conditions: anticancer drug combined with omeprazole (KN510) versus each treatment alone
[12] = system: breast cancer cells, MDA-MB-231 cells and MCF-7 cells; assay: Synergistic effect of omeprazole and anticancer drug, breast cancer cells; conditions: anticancer drug combined with omeprazole (KN510) versus each treatment alone
[13] = system: ovarian cancer cells, OVCAR-8 cells and SK-OV-3 cells; assay: Synergistic effect of omeprazole and anticancer drug, ovarian cancer cells; conditions: anticancer drug combined with omeprazole (KN510) versus each treatment alone
[14] = system: A549 and H23 lung cancer cells; assay: Synergistic effect of omeprazole and anticancer drug, lung cancer cells; conditions: anticancer drug combined with omeprazole (KN510) versus each treatment alone
[15] = system: UACC62 cells; assay: SRB assay cancer cell growth rate, UACC62; conditions: relative to control (100%), 48 hours, KN510 200 μM, irinotecan 2.5 μM, 5-FU 5 μM, gemcitabine 2.5 μM, paclitaxel 10 nM, cisplatin 1 μM, alone or KN510 + anticancer drug
[16] = system: PC-3 cells; assay: SRB assay cancer cell growth rate, PC-3; conditions: relative to control (100%), 48 hours, KN510 200 μM, irinotecan 2.5 μM, 5-FU 5 μM, gemcitabine 2.5 μM, paclitaxel 10 nM, cisplatin 1 μM, alone or KN510 + anticancer drug
[17] = system: ACHN cells; assay: SRB assay cancer cell growth rate, ACHN; conditions: relative to control (100%), 48 hours, KN510 200 μM, irinotecan 2.5 μM, 5-FU 5 μM, gemcitabine 2.5 μM, paclitaxel 10 nM, cisplatin 1 μM, alone or KN510 + anticancer drug
[18] = system: HCT-116 cells; assay: SRB assay cancer cell growth rate, HCT-116; conditions: relative to control (100%), 48 hours, KN510 200 μM, irinotecan 2.5 μM, 5-FU 5 μM, gemcitabine 2.5 μM, paclitaxel 10 nM, cisplatin 1 μM, alone or KN510 + anticancer drug
[19] = system: pancreatic ductal adenocarcinoma (PDAC) cell lines, MIA PaCa-2 cells and PANC-1 cells; assay: Synergistic effect of omeprazole and anticancer drug, pancreatic cancer cell lines; conditions: anticancer drug combined with omeprazole (KN510) versus each treatment alone
[20] = system: CAKI-1 cells; assay: SRB assay cancer cell growth rate, CAKI-1; conditions: relative to control (100%), 48 hours, KN510 200 μM, irinotecan 2.5 μM, 5-FU 5 μM, gemcitabine 2.5 μM, paclitaxel 10 nM, cisplatin 1 μM, alone or KN510 + anticancer drug
[21] = system: MKN-28 cells and AGS cells, stomach cancer cells; assay: Synergistic effect of omeprazole and anticancer drug, stomach cancer cells; conditions: anticancer drug combined with omeprazole (KN510) versus each treatment alone
[22] = system: leukemia cells, SR cells and K562 cells; assay: Synergistic effect of omeprazole and anticancer drug, leukemia cells; conditions: anticancer drug combined with omeprazole (KN510) versus each treatment alone

SMILES	synergistic effect of omeprazole and an anticancer drug in combination, colon cancer [1]	UACC257 growth rate average (%) [2] [%]	synergistic effect of omeprazole and an anticancer drug in combination, melanoma [3]	OVCAR-8 growth rate average (%) [4] [%]	K562 growth rate average (%) [5] [%]	synergistic effect of omeprazole and an anticancer drug in combination, renal cell carcinoma [6]	A549 growth rate average (%) [7] [%]	SR growth rate average (%) [8] [%]	synergistic effect of omeprazole and an anticancer drug in combination, liver cancer [9]	synergistic effect of omeprazole and an anticancer drug in combination, prostate cancer [10]	synergistic effect of omeprazole and an anticancer drug in combination, glioblastoma (GBM) [11]	synergistic effect of omeprazole and an anticancer drug in combination, breast cancer [12]	synergistic effect of omeprazole and an anticancer drug in combination, ovarian cancer [13]	synergistic effect of omeprazole and an anticancer drug in combination, lung cancer [14]	UACC62 growth rate average (%) [15] [%]	PC-3 growth rate average (%) [16] [%]	ACHN growth rate average (%) [17] [%]	HCT-116 growth rate average (%) [18] [%]	synergistic effect of omeprazole and an anticancer drug in combination, pancreatic cancer (PDAC) [19]	CAKI-1 growth rate average (%) [20] [%]	also measured
CCc1c2c(nc3ccc(OC(=O)N4CCC(N5CCCCC5)CC4)cc13)-c1cc3c(c(=O)n1C2)COC(=O)[C@]3(O)CC [Irinotecan]	Positive effect	21.87	Positive effect	4.70	46.54	Positive effect	16.54	6.26	Positive effect	Negative effect	Positive effect	Positive effect	Negative effect	Negative effect	−35.63	33.84	42.20	41.85	Positive effect	44.74	synergistic effect of omeprazole and an anticancer drug in combination, colon cancer ([1]; listed as irinotecan): significantly inhibited; synergistic effect of omeprazole and an anticancer drug in combination, melanoma ([3]; listed as irinotecan): significantly inhibited; synergistic effect of omeprazole and an anticancer drug in combination, renal cell carcinoma ([6]; listed as irinotecan): significantly inhibited; synergistic effect of omeprazole and an anticancer drug in combination, liver cancer ([9]; listed as irinotecan): significantly inhibited; synergistic effect of omeprazole and an anticancer drug in combination, glioblastoma (GBM) ([11]; listed as irinotecan): significantly inhibited; synergistic effect of omeprazole and an anticancer drug in combination, breast cancer ([12]; listed as irinotecan): significantly inhibited; synergistic effect of omeprazole and an anticancer drug in combination, pancreatic cancer (PDAC) ([19]; listed as irinotecan): significantly inhibited; synergistic effect of omeprazole and an anticancer drug in combination, stomach cancer [21]: Negative effect; synergistic effect of omeprazole and an anticancer drug in combination, leukemia [22]: Positive effect; synergistic effect of omeprazole and an anticancer drug in combination, leukemia ([22]; listed as irinotecan): significantly inhibited
CC(=O)O[C@H]1C(=O)[C@@]2(C)[C@H]([C@H](OC(=O)c3ccccc3)[C@]3(O)C[C@H](OC(=O)[C@H](O)[C@@H](NC(=O)c4ccccc4)c4ccccc4)C(C)=C1C3(C)C)[C@]1(OC(C)=O)CO[C@@H]1C[C@@H]2O [Paclitaxel]	Positive effect	35.43	Positive effect	12.64	59.27	Negative effect	22.67	94.83	Negative effect	Negative effect	Positive effect	Negative effect	Negative effect	Positive effect	48.36	32.49	0.91	17.70	Positive effect	17.70	synergistic effect of omeprazole and an anticancer drug in combination, colon cancer ([1]; listed as paclitaxel): significantly inhibited; synergistic effect of omeprazole and an anticancer drug in combination, melanoma ([3]; listed as paclitaxel): significantly inhibited; synergistic effect of omeprazole and an anticancer drug in combination, glioblastoma (GBM) ([11]; listed as paclitaxel): significantly inhibited; synergistic effect of omeprazole and an anticancer drug in combination, lung cancer ([14]; listed as paclitaxel): significantly inhibited; synergistic effect of omeprazole and an anticancer drug in combination, pancreatic cancer (PDAC) ([19]; listed as paclitaxel): significantly inhibited; synergistic effect of omeprazole and an anticancer drug in combination, stomach cancer [21]: Positive effect; synergistic effect of omeprazole and an anticancer drug in combination, stomach cancer ([21]; listed as paclitaxel): significantly inhibited; synergistic effect of omeprazole and an anticancer drug in combination, leukemia [22]: Positive effect; synergistic effect of omeprazole and an anticancer drug in combination, leukemia ([22]; listed as paclitaxel): significantly inhibited
